One test concerns the target T1, THIK-1 (Homo sapiens, UniProt Q9HB14).
T1 construct: expressed in transfected cells
T1 sequence (Q9HB14 1-408): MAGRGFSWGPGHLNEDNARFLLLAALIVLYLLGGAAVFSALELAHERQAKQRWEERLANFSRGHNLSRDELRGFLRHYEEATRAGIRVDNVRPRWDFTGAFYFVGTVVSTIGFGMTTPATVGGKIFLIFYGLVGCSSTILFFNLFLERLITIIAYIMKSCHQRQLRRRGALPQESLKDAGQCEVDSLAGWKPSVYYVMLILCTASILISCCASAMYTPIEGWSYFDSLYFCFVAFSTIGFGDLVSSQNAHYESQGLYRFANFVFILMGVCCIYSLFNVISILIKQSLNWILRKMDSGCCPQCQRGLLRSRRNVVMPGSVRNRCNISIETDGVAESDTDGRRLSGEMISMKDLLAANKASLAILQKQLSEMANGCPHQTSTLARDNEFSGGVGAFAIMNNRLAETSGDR
Put plainly: Q-Patch automated electrophysiology, HEK-hTHIK-1 cells. It counts as cell-based. As for the experimental part:
HEK-293 cells were transfected with human THIK-1, TREK-1, TWIK-2, or mouse THIK-1 cDNA cloned into pcDNA3.1, using either Fugene HD transfection reagent (Promega) or electroporation (MaxCyte STX instrument). Cells stably expressing the relevant genes were selected based on resistance to 500 μg/ml geneticin (Gibco). For human THIK-1 and TWIK-2 expressing cells, monoclonal lines were isolated by limited dilution cloning; mouse THIK-1 and human TREK-1 expressing cells were maintained as polyclonal pools. The HEK-293 pools and monoclones stably expressing the relevant genes were maintained in DMEM (Life Technologies), supplemented with 10% FCIII (HyClone, Fetal clone III) and 500 μg/ml geneticin. A CHO-Kv2.1 cell line was purchased from Millipore (accession NM_004975) and maintained in F12 (Life Technologies), supplemented with 10% FCSIII (Thermo Scientific) and 500 μg/ml geneticin (Life Technologies). For thallium flux assays, banks of frozen cell aliquots were prepared the day prior to assay, cells were thawed into media and seeded into PDL coated 384-well plates (Corning) at 25,000 (human/mouse THIK-1, TREK-1) or 30,000 (TWIK-2) cells/well (25 μl/well). CHO-Kv2.1 cells were seeded into non-PDL coated plates (Corning) at 5000 cells/well. […]
THIK-1 mediated currents were measured using the Q-Patch 48 automated electrophysiology platform (Sophion, Denmark). […]

The next test deals with Opiate μ (OP3, MOP) (Homo sapiens, UniProt P35372). Put plainly: Promiscuity screening panel, radiometric binding. The note with it: read-out: % inhibition at 10 µM (n=2). As for the experimental part: (§1) C101248 was further profiled in a promiscuity screening panel, using radiometric binding assays, against a selection of 18 diverse targets at 10 μM (Supplementary Table 2).
(§2) Supplementary Table 2: Promiscuity screening panel data for C101248. Compound was screened at 10 µM, in duplicate, using radiometric binding assays

The subject of test [1] is GABAA, Flunitrazepam, Central. Put plainly: Promiscuity screening panel, radiometric binding. To be noted: Rat. As for the experimental part: as §1, §2
For another test, the target named is Adrenergic β2 (Homo sapiens, UniProt P07550). The experiment in a line: Promiscuity screening panel, radiometric binding. To be noted: read-out: % inhibition at 10 µM (n=2). As to the method: as §1, §2
Adrenergic β2, sequence (P07550 whole entry): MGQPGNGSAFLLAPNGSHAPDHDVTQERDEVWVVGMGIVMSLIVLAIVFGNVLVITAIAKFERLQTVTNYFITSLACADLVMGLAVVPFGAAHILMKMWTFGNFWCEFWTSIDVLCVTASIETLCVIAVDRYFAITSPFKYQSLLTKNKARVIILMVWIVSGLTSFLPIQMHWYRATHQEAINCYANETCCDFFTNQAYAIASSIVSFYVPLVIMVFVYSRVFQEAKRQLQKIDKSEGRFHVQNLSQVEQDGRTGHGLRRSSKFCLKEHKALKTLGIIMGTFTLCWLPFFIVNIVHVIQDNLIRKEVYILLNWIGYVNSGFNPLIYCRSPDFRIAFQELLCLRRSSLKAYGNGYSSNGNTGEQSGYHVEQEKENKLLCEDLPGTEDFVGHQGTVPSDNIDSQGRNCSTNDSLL

Opiate μ (OP3, MOP), sequence (P35372 whole entry): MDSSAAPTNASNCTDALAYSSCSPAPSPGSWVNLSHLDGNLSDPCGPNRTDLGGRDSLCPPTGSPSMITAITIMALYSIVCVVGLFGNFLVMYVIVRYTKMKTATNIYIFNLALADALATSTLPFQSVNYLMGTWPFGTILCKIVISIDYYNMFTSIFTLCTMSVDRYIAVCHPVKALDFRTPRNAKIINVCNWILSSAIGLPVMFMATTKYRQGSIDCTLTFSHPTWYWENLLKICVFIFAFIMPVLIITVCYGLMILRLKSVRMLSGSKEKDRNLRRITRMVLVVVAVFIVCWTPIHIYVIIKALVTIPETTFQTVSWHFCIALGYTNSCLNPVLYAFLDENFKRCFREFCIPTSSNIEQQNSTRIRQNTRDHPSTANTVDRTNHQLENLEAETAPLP

Regarding `Nc1nonc1-c1nc2ccccc2n1Cc1ccncc1` [C101248], the “maximum inhibition (Q-Patch)” value on THIK-1 (HEK-hTHIK-1) is given as 94%. At THIK-1 (HEK-hTHIK-1, step to +40 mV, normalised to TPA, read-out: IC50, inhibition of basal currents (Q-Patch)), the half-maximal inhibitory concentration (IC50) worked out at 147 nM. In addition, the inhibition at 10 µM was -9% on Opiate μ (OP3, MOP) and 15% at Adrenergic β2. Besides, the “% inhibition at 10 µM (n=2)” value in test [1] is -9%.

One may read the IC50 as the concentration that inhibits the measured activity by half. A word on the inhibition: it is the relative decrease from the control value, in per cent. A word on the % inhibition: it is the drop in the measured response relative to a control, in per cent.
